Measured values as given in patent publication US5780605A, “6,9-bridged erythromycin derivatives” (Abbott Laboratories, priority 1997, dated 1998).

How the values were obtained:
Assay in all cases: in vitro antibacterial activity (MIC), BHI agar dilution
Type in all cases: cell-based
[1] = tested on: Staphylococcus aureus A5177; details: S. aureus A5177, 35-37° C., 20 to 24 hours
Protocol: (§1) Representative compounds of the present invention were assayed in vitro for antibacterial activity as follows: Twelve petri dishes containing successive aqueous dilutions of the test compound mixed with 10 mL of sterilized Brain Heart Infusion (BHI) agar (Difco 0418-01-5) were prepared. Each plate was inoculated with 1:100 (or 1:10 for slow-growing strains, such as Micrococcus and Streptococcus) dilutions of up to 32 different microorganisms, using a Steers replicator block. […] In addition, a control plate, using BHI agar containing no test compound, was prepared and incubated at the beginning and end of each test.
(§2) An additional plate containing a compound having known susceptibility patterns for the organisms being tested and belonging to the same antibiotic class as the test compound was also prepared and incubated as a further control, as well as to provide test-to-test comparability.
(§3) After incubation, each plate was visually inspected. The minimum inhibitory concentration (MIC) was defined as the lowest concentration of drug yielding no growth, a slight haze, or sparsely isolated colonies on the inoculum spot as compared to the growth control.

[2] = tested on: Escherichia coli DC-2; details: E. coli DC-2, 35-37° C., 20 to 24 hours
Protocol: as §1, §2, §3

[3] = tested on: Nocardia Asteroides ATCC9970; details: 35-37° C., 20 to 24 hours
Protocol: as §1, §2, §3

[4] = tested on: Staphylococcus aureus ATCC 6538P; details: S. aureus ATCC 6538P, 35-37° C., 20 to 24 hours
Protocol: as §1, §2, §3

[5] = tested on: Candida albicans CCH 442; details: C. albicans CCH 442, 35-37° C., 20 to 24 hours
Protocol: as §1, §2, §3

[6] = tested on: Staphylococcus aureus CMX 553; details: S. aureus CMX 553, 35-37° C., 20 to 24 hours
Protocol: as §1, §2, §3

[7] = tested on: Micrococcus luteus ATCC 9341; details: M. luteus ATCC 9341, 35-37° C., 20 to 24 hours
Protocol: as §1, §2, §3

[8] = tested on: Streptococcus Pheumoniae 5979; details: 35-37° C., 20 to 24 hours
Protocol: as §1, §2, §3

[9] = tested on: Staphylococcus aureus A-5278; details: S. aureus A-5278, 35-37° C., 20 to 24 hours
Protocol: as §1, §2, §3

[10] = tested on: Escherichia coli SS; details: E. coli SS, 35-37° C., 20 to 24 hours
Protocol: as §1, §2, §3

[11] = tested on: Streptococcus pyogenes PIU 2548; details: S. pyogenes PIU 2548, 35-37° C., 20 to 24 hours
Protocol: as §1, §2, §3

[12] = tested on: Streptococcus bovis A-5169; details: S. bovis A-5169, 35-37° C., 20 to 24 hours
Protocol: as §1, §2, §3

[13] = tested on: Staphylococcus aureus NCTC10649M; details: S. aureus NCTC10649M, 35-37° C., 20 to 24 hours
Protocol: as §1, §2, §3

[14] = tested on: Escherichia coli JUHL; details: E. coli JUHL, 35-37° C., 20 to 24 hours
Protocol: as §1, §2, §3

[15] = tested on: Streptococcus Pheumoniae ATCC6303; details: 35-37° C., 20 to 24 hours
Protocol: as §1, §2, §3

[16] = tested on: Staphylococcus aureus CMX 642A; details: S. aureus CMX 642A, 35-37° C., 20 to 24 hours
Protocol: as §1, §2, §3

[17] = tested on: Streptococcus Pheumoniae 5649; details: 35-37° C., 20 to 24 hours
Protocol: as §1, §2, §3

[18] = tested on: Staphylococcus aureus 1775; details: S. aureus 1775, 35-37° C., 20 to 24 hours
Protocol: as §1, §2, §3

[19] = tested on: Streptococcus pyogenes 930; details: S. pyogenes 930, 35-37° C., 20 to 24 hours
Protocol: as §1, §2, §3

[20] = tested on: Streptococcus Pheumoniae GYR 1171; details: 35-37° C., 20 to 24 hours
Protocol: as §1, §2, §3

[21] = tested on: Enterococcus faecium ATCC 8043; details: E. faecium ATCC 8043, 35-37° C., 20 to 24 hours
Protocol: as §1, §2, §3

[22] = tested on: Haemophilis Influenzae DILL AMP R; details: 35-37° C., 20 to 24 hours
Protocol: as §1, §2, §3

[23] = tested on: Micrococcus luteus ATCC 4698; details: M. luteus ATCC 4698, 35-37° C., 20 to 24 hours
Protocol: as §1, §2, §3

[24] = tested on: Mycobacterium smegmafis ATCC 114; details: 35-37° C., 20 to 24 hours
Protocol: as §1, §2, §3

[25] = tested on: Streptococcus agalactiae CMX 508; details: S. agalactiae CMX 508, 35-37° C., 20 to 24 hours
Protocol: as §1, §2, §3

[26] = tested on: Streptococcus pyogenes EES61; details: S. pyogenes EES61, 35-37° C., 20 to 24 hours
Protocol: as §1, §2, §3

[27] = tested on: Staphylococcus epidermidis 3519; details: S. epidermidis 3519, 35-37° C., 20 to 24 hours
Protocol: as §1, §2, §3

For `CC[C@H]1OC(=O)[C@H](C)[C@@H](O[C@H]2C[C@@](C)(OC)[C@@H](O)[C@H](C)O2)[C@H](C)[C@@H](O[C@@H]2O[C@H](C)C[C@H](N(C)C)[C@H]2O)[C@@]2(C)C[C@@H](C)C(=NOCO2)[C@H](C)[C@@H](O)[C@]1(C)O` [Example 1], the “MIC (minimum inhibitory concentration)” value [1] was over 100, the “MIC (minimum inhibitory concentration)” value [2] was over 100 and the “MIC (minimum inhibitory concentration)” value [3] was 0.39. For the same compound, the “MIC (minimum inhibitory concentration)” value [4] was 6.2, the “MIC (minimum inhibitory concentration)” value [5] was over 100 and the “MIC (minimum inhibitory concentration)” value [6] was 6.2. The “MIC (minimum inhibitory concentration)” value [7] was 0.2, the “MIC (minimum inhibitory concentration)” value [8] was over 64 and the “MIC (minimum inhibitory concentration)” value [9] was over 100. For the same compound, the “MIC (minimum inhibitory concentration)” value [10] was 1.56, the “MIC (minimum inhibitory concentration)” value [11] was 6.2 and the “MIC (minimum inhibitory concentration)” value [12] was 0.39. For the same compound, the “MIC (minimum inhibitory concentration)” value [13] was 6.2, the “MIC (minimum inhibitory concentration)” value [14] was over 100 and the “MIC (minimum inhibitory concentration)” value [15] was 1. For the same compound, the “MIC (minimum inhibitory concentration)” value [16] was 12.5, the “MIC (minimum inhibitory concentration)” value [17] was 4 and the “MIC (minimum inhibitory concentration)” value [18] was over 100. For the same compound, the “MIC (minimum inhibitory concentration)” value [19] was over 100, the “MIC (minimum inhibitory concentration)” value [20] was 0.5 and the “MIC (minimum inhibitory concentration)” value [21] was 1.56. For the same compound, the “MIC (minimum inhibitory concentration)” value [22] was 32, the “MIC (minimum inhibitory concentration)” value [23] was 1.56 and the “MIC (minimum inhibitory concentration)” value [24] was 1.56. For the same compound, the “MIC (minimum inhibitory concentration)” value [25] was 0.39, the “MIC (minimum inhibitory concentration)” value [26] was 0.39 and the “MIC (minimum inhibitory concentration)” value [27] was 6.2.
